Experimental findings from US7923461B2, “TNF-α production inhibitors” (Santen Pharmaceutical Co., Ltd., priority 2000, dated 2011) are described below.

Consider `CCCCCN(CCC12CC3CC(CC(C3)C1)C2)C(=O)NCCc1ccc(O)cc1`, for which the melting point lay in the range of 96.3 to 99.4 °C.

`Cl.O=C(NCc1ccncc1)N(CCC1CCCCC1)Cc1cccs1` returned a melting point of 161.8 to 164.4 °C.

As for `Cl.O=C(NCCCc1ccncc1)N(CCC12CC3CC(CC(C3)C1)C2)CCC12CC3CC(CC(C3)C1)C2`, the melting point was in the range of 120 to 122.5 °C.

Consider `CCCCCN(CCC12CC3CC(CC(C3)C1)C2)C(=O)CNCCc1ccncc1.Cl.Cl`, for which the melting point lay within 133.7 to 137 °C.

Consider `CC(C)CCN(CCC(C)C)C(=O)NCCCc1ccncc1.Cl`, for which the melting point was 120.5 to 131.7 °C.

Regarding `Cl.Cl.NN(CCC12CC3CC(CC(C3)C1)C2)C(=O)NCCCc1ccncc1`, the melting point was ~ 100 °C.

In turn, `Cl.O=C1CCN(CCC2CCCCC2)C(=O)N1Cc1ccncc1` yielded a melting point of 64 to 74.5 °C.

In turn, `Cl.O=C1CCN(CCCc2ccncc2)C(=O)N1CCC12CC3CC(CC(C3)C1)C2` displayed a melting point of 170 °C.

For `O=C(NCCCc1ccncc1)N1CCc2ccccc2C1` [Compound No. 1-5, N-[3-(4-Pyridyl)propyl]-1,2,3,4-tetrahydroisoquinoline-2-carboxamide], the melting point fell in the range of 76 to 79 °C.

Regarding `O=C(NCCCc1ccncc1)N1CCOCC1` [Compound No. 1-6, N-[3-(4-Pyridyl)propyl]-4-morpholinecarboxamide], the melting point was in the range of 94 to 98 °C.

For the compound `CN(C)CCN(CCC12CC3CC(CC(C3)C1)C2)C(=O)NCCCc1ccncc1` [Compound No. 1-15, 1-[2-(1-Adamantyl)ethyl]-1-[2-(dimethylamino)ethyl]-3-[3-(4-pyridyl)propyl]urea], the melting point lay in the range of 104 to 106.5 °C.

On to `CCCN(CCC12CC3CC(CC(C3)C1)C2)C(=O)NCCCc1ccncc1` [Compound No. 1-16, 1-[2-(1-Adamantyl)ethyl]-1-propyl-3-[3-(4-pyridyl)propyl]urea], for which the melting point was in the range of 99 to 103 °C.

As to `C#CCN(CCC12CC3CC(CC(C3)C1)C2)C(=O)NCCCc1ccncc1` [Compound No. 1-17, 1-[2-(1-Adamantyl)ethyl]-1-(2-propynyl)-3-[3-(4-pyridyl)propyl]urea], the melting point fell in the range of 152 to 154 °C.

Compound `O=C(NCCCc1ccncc1)N(CCC12CC3CC(CC(C3)C1)C2)C1CC1` [Compound No. 1-19, 1-[2-(1-Adamantyl)ethyl]-1-cyclopropyl-3-[3-(4-pyridyl)propyl]urea] gave a melting point of 108 to 115.5 °C.

In turn, `O=C(NCCCc1ccncc1)N(CCC12CC3CC(CC(C3)C1)C2)CC1CCCC1` [Compound No. 1-21, 1-[2-(1-Adamantyl)ethyl]-1-cyclopentylmethyl-3-[3-(4-pyridyl)propyl]urea] had a melting point of 155 to 158 °C.

In turn, `C=CCN(CCC12CC3CC(CC(C3)C1)C2)C(=O)NCCCc1ccncc1` [Compound No. 1-23, 1-[2-(1-Adamantyl)ethyl]-1-allyl-3-[3-(4-pyridyl)propyl]urea] had a melting point of 99 to 102 °C.

The compound `CCCCCCN(CCC12CC3CC(CC(C3)C1)C2)C(=O)NCCCc1ccncc1` [Compound No. 1-29, 1-[2-(1-Adamantyl)ethyl]-1-hexyl-3-[3-(4-pyridyl)propyl]urea] had a melting point of 119.5 to 121.5 °C.

Regarding `C=C(C)CN(CCC12CC3CC(CC(C3)C1)C2)C(=O)NCCCc1ccncc1` [Compound No. 1-33, 1-[2-(1-Adamantyl)ethyl]-1-(2-methyl-2-propenyl)-3-[3-(4-pyridyl)propyl]urea], the melting point is 108 to 109 °C.

In turn, `CN(CCC12CC3CC(CC(C3)C1)C2)C(=O)NCCCc1ccncc1` [Compound No. 1-40, 1-[2-(1-Adamantyl)ethyl]-1-methyl-3-[3-(4-pyridyl)propyl]urea] gave a melting point of 99 to 109 °C.

`CCN(CCC12CC3CC(CC(C3)C1)C2)C(=O)NCCCc1ccncc1` [Compound No. 1-41, 1-[2-(1-Adamantyl)ethyl]-1-ethyl-3-[3-(4-pyridyl)propyl]urea] registered a melting point of 106 to 115 °C.
